Assay results taken from BindingDB's records for patent US9150581 (Research Triangle Institute, 2015).

Target: Isoform Alpha-4-2 of Neuronal acetylcholine receptor subunit alpha-4 (Alpha-4-2) (Rattus norvegicus, UniProt P09483)
Experiment: Inhibition Assay

Sequence of Isoform Alpha-4-2 of Neuronal acetylcholine receptor subunit alpha-4 (Alpha-4-2) (P09483 as listed by the source): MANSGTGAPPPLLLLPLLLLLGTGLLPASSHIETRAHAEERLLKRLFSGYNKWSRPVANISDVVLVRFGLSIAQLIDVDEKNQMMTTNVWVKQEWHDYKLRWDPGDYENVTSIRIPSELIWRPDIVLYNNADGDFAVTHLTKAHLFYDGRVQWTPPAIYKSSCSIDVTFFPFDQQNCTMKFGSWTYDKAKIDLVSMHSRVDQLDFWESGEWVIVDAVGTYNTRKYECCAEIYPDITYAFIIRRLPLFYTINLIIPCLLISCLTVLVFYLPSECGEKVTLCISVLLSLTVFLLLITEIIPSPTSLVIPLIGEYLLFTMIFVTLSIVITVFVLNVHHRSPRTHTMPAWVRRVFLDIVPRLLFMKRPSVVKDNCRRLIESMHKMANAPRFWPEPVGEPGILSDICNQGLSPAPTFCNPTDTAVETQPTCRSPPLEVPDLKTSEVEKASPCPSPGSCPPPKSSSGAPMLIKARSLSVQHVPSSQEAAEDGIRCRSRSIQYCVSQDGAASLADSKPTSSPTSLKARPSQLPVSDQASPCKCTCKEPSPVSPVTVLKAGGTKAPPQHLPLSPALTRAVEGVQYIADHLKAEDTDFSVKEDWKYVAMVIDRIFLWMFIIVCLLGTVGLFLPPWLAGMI

Q: Which Ki does the source give for `Fc1ncc(C2CC3CCC2N3)cc1-c1cccc(Cl)c1` (racemic) [US9150581, RTI-7527-98] here?
A: 73 pM

Q: With `Fc1ncc(C2CC3CCC2N3)cc1-c1ccccc1` (stereo not drawn) [US9150581, RTI-7527-(-)-47] as the compound, how does the Ki read?
A: 260 pM
